Assay results: patent US20080027088A1, “Imidazole-Based Hmg-Coa Reductase Inhibitors” (Warner-Lambert Company, LLC, priority 2004, published 2008)

Tests used:
[1] = tested on: ApoE KO mice fed a Western diet; test: Plasma SM/PC ratio (HPLC) and ceramide (LC/MS/MS), 12 weeks; assay type: in vivo; settings: 0.3 mg/kg/day
Text: Analysis of Sphingolipids and Phospholipids by LC/MS and HPLC-Total lipids were extracted by the modified method of Bligh-Dyer extraction (E. G. Bligh and W. J. Dyer, Can. J. Med. Sci. 1959;37:911-917; and D. K. Perry, A. Bielawska and Y. A. Hannun, Methods Enzymol. 2000;312:22-31). A Micromass (Waters Corp., Milford, Mass.) Quattro Ultima tandem quadrupole mass spectrometer with a standard Z-sprayTM ion source, set to electrospray positive ionization mode, with MassLynxTM version 3.5 operating software, was used for all quantitative determinations. Source conditions were typically as follows: capillary 3.5 kV, source temperature 110 degrees C., and desolvation temperature 325 degrees C. […] The following ion transitions were used for quantification: sphingomyelin (704→184 m/z), sphinganine (302→284 m/z), ceramide (566→264 m/z) and psychosine (462→282 m/z) as an internal standard. […] For the quantitative method, the analytical column was a Phenomenex (Torrance, Calif.) Polar-RP (2.0×150 mm, 4 μm) with a […] […] Lipid extracts were analyzed by HPLC and evaporative light scattering detector to determine plasma sphingomyelin and phosphatidylcholine (PC) levels (R. Homan and M.K. Anderson, J. Chromatogr. B. Biomed. Sci. Appl. 1998;708:21-6). […] Plasma concentrations of SM and PC were determined, and SM/PC ratio (FIG. 13A) was calculated using HPLC. […]

[2] = tested on: ApoE KO mice fed a Western diet; test: Atherosclerotic lesion and macrophage area in aortic root and brachiocephalic artery, 12 weeks; assay type: in vivo
Method: For histological analysis, the mice were perfused and fixed in Zinc-Tris fixative. Paraffin embedded sections were stained with Masson's Trichrome. Intimal macrophages were immunohistochemically stained using MAC-2 antibody (clone M3/38 from Cedarlane Laboratories Limited) counterstained with Verhoeff elastic stain. T-lymphocytes were immunohistochemically stained with rat CD3 antibody (clone CD3-12, Serotec). Lesion thickness and area occupied by macrophages were determined using Image Pro Plus software.
FIGS. 11 & 12. Formation of atherosclerotic lesions in aortic root and brachiocephalic artery. ApoE KO mice fed with Western-diet in the absence or presence of myriocin, ApoE KO mice and C57BI/6J mice fed with normal chow were sacrificed and fixed with Zinc-Tris. The cross-section of brachiocephalic artery was stained by Masson's Trichrome and MAC-2 antibody counterstained with Verhoeff elastic stain. Atherosclerotic lesion (black bars) and macrophage size (gray bars) in brachiocephalic artery and in aortic root were quantified by using Image Pro Plus. The values reported are mean±SEM (n=5, *P<0.01, WD vs WD plus myriocin; #P<0.01, normal vs WD plus myriocin). Bar represents 100 μm.

`CCCCCCC(=O)CCCCCC/C=C/C[C@@H](O)[C@H](O)[C@@](N)(CO)C(=O)O` [myriocin] was tested, and the “plasma ceramide levels reduced” value [1] was 60%, the “effect on plasma SM/PC ratio” value ([1]; vs Western diet-fed group) was “did not affect” and the “decrease in lesion area, brachiocephalic artery” value ([2]; 0.3 mg/kg) was 76%. For the same compound, the “decrease in macrophage area, brachiocephalic artery” value ([2]; 0.3 mg/kg) was 74%, the “lesion area decreased, aortic root” value ([2]; 0.3 mg/kg) was 44% and the “macrophage area decreased, aortic root” value ([2]; 0.3 mg/kg) was 31%. The “necrotic core in lesions” value ([2]; myriocin-treated, Western diet-fed ApoE KO mice) was “did not develop necrotic core”.
